Measured values as given in publication PMC9979163, “Discovery and functional characterization of N-(thiazol-2-yl)-benzamide analogs as the first class of selective antagonists of the Zinc-Activated Channel (ZAC)” (Biochemical pharmacology, 2021).

Assays:
[1] = system: m5-HT3A/ZAC; test: TEVC, chimeric m5-HT3A/ZAC receptor in oocytes; format: cell-based, mouse/human; conditions: 30 μM, 0.3 μM 5-HT
Procedure: (§1) The cDNAs for the various WT and chimeric CLR subunits were linearized and subsequently transcribed and capped mMessage mMachine T7 RNA transcription kit (Ambion, Waltham, MA). […]
(§2) On the day of experiment, all compound dilutions were prepared in a saline solution [115 mM NaCl, 2.5 mM KCl, 10 mM MOPS (pH 7.5), 1.8 mM CaCl2, 0.1 mM MgCl2] and pH adjusted to 7.5 (if needed). […] Currents were recorded using pCLAMP 10 (Molecular Devices, Sunnyvale, CA). […]
(§3) In all recordings, the compounds or compound combinations were applied in the bath until the peak current decayed to a steady state (up to 30 sec at the most). […] The functional properties of the modulators at the CLRs were determined by pre-application of the modulator to the perfusate 30 sec and followed by co-application of the modulator and the agonist to the perfusate. […]
(§4) Data analysis of the results from the TEVC recordings were performed using Clampfit software version 10.5 (Molecular Devices, Crawley, UK) and GraphPad Prism version 7.0c (GraphPad Software, Inc. La Jolla, CA). […] I-V relationships were analyzed by fitting the curves with a third order polynomial model. […]

[2] = molecular target: T1, m5-HT3AR (Mus musculus, UniProt P23979); test: TEVC selectivity, m5-HT3AR in oocytes; format: cell-based; conditions: 30 μM, 30 s preapplication, 2 μM 5-HT (EC20–EC40)
T1 sequence (P23979 24-489): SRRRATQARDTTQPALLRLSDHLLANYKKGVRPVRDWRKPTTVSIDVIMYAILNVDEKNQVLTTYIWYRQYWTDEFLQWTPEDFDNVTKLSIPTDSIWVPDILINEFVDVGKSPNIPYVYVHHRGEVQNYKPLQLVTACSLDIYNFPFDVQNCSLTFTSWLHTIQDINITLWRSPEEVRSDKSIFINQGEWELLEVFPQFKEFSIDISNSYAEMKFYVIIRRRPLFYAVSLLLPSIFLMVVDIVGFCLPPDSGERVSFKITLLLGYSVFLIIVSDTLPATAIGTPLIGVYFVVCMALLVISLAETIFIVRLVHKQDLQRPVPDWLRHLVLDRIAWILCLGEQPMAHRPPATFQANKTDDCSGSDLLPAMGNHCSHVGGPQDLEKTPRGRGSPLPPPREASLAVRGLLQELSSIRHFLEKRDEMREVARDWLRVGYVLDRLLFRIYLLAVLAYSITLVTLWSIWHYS
Procedure: as §1, §2, §3, §4

[3] = molecular target: T2, h5-HT3A (Homo sapiens, UniProt P46098); test: FMP assay at h5-HT3A-HEK293 cells; format: cell-based; conditions: concentrations up to 100 μM, data not shown
T2 construct: expressed in transfected cells
T2 sequence (P46098 24-478): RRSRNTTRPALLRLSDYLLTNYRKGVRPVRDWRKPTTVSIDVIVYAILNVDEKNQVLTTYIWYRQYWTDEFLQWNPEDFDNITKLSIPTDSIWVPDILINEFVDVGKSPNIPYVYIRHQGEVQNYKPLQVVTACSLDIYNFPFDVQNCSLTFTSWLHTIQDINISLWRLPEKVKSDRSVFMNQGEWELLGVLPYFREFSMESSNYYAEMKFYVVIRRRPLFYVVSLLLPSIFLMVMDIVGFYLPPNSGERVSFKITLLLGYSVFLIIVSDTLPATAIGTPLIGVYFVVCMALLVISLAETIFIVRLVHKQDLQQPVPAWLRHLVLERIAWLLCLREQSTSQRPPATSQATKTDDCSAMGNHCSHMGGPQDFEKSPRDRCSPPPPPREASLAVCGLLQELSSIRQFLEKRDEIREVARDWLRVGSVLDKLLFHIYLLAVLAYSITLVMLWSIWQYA

[4] = molecular target: T3, rα3β4-nAChR (Rattus norvegicus, UniProt P04757+P12392); test: FMP assay at rα3β4-nAChR-HEK293 cells ((S)-nicotine-induced response); format: cell-based; conditions: concentrations up to 100 μM, data not shown
T3 construct: expressed in transfected cells
T3 sequence (P04757 26-499): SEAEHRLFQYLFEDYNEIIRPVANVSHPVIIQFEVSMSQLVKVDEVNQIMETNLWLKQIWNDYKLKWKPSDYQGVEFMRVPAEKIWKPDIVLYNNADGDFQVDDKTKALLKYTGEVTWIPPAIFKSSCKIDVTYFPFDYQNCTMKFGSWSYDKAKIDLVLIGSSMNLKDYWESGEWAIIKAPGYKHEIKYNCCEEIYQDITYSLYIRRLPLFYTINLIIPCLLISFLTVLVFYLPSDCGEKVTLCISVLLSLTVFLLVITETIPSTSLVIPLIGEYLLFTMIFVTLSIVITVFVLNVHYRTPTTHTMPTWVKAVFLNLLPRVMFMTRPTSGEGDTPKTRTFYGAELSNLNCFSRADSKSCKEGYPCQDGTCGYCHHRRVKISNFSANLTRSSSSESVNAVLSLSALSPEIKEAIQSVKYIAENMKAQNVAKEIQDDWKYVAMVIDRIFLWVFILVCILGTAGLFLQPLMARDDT
T3 sequence (P12392 22-495 limits assumed): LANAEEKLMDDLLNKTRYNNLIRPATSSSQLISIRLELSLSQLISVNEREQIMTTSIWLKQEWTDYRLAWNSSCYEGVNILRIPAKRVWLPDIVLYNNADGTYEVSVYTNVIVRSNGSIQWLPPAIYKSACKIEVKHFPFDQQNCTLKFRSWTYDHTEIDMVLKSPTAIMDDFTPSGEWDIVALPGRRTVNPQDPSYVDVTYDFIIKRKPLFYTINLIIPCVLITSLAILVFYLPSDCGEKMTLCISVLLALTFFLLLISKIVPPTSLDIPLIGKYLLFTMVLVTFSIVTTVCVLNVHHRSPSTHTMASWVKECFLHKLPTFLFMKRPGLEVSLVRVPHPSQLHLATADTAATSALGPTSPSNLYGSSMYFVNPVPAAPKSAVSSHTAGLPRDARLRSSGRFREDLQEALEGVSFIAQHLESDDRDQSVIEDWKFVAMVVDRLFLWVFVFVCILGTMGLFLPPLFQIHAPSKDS

Row | SMILES | Modulation of 5-HT-induced response [1] | Agonist, antagonist or PAM activity [2] | Effect on 5-HT-induced response [3] | Effect on (S)-nicotine-induced response [4]
1 | CC(C)(C)c1csc(NC(=O)c2cccc(F)c2)n1 [5a, N-(4-(tert-butyl)thiazol-2-yl)-3-fluorobenzamide] | complete inhibition | did not display significant activity |  | 
2 | COC(=O)c1sc(NC(=O)c2cc(Br)ccc2Cl)nc1C [compound 1, 2-(5-bromo-2-chlorobenzamido)-4-methylthiazole-5-methyl ester] |  |  | did not affect | did not affect
